According to patent US8895585B2, “Nicotinamide derivative or salt thereof” (FUJIFILM Corporation, priority 2010, dated 2014):

How the values were obtained:
[1] = target: T1, glutathione S-transferase (GST)-fused full-length human Syk protein (Homo sapiens, UniProt P43405); experiment: Syk enzyme assay; type: biochemical; conditions: Syk enzyme assay, Test Example 1; read-out: IC50 of Syk-inhibitory activity
T1 construct: (GST)-fused full-length human Syk protein; GST (glutathione S-transferase); purchased Carna Biosciences
Outline: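 Baculovirus-expressed enzyme (1.2 ng) was preincubated with compound in HEPES pH 7.0/MgCl2/DTT buffer, 2 min shaking then 13 min at room temperature. Biotin-EDPDYEWPSA-NH2 (0.4 μM final) and ATP (27 μM final) were added for 40 min at room temperature. EDTA stop, streptavidin-XL/PT66-K TR-FRET at 615/665 nm gave IC50.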

[2] = tested on: THP-1 cells; experiment: TNFα generation assay; type: cell-based, human; conditions: Homo sapiens, THP-1, THP-1 cells; Table 22; read-out: IC50 in TNFα generation assay
Outline: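 Secreted TNFα in supernatant quantified by ELISA or AlphaLISA after 7 h culture on human IgG-coated wells (10 μg/ml coating). Cells were IFN-γ-differentiated THP-1 (10 ng/ml, 2 days), exposed to compound for 30 min at room temperature before plating.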

Compound	IC50 [1] [nM]	IC50 [2] [nM]
C[C@H](N)[C@H](Nc1nc(Nc2cncc(F)c2)c(C(N)=O)cc1F)C1CC1 [Example 006-372, 6-(((1R,2S)-2-amino-1-cyclopropylpropyl)amino)-5-fluoro-2-((5-fluoropyridin-3-yl)amino)nicotinamide]	10 to 50	65 to 130
C[C@H](N)[C@H](Nc1nc(Nc2cncc(-n3cccn3)c2)c(C(N)=O)cc1F)C1CC1 [Example 006-373, 2-((5-(1H-pyrazol-1-yl)pyridin-3-yl)amino)-6-(((1R,2S)-2-amino-1-cyclopropylpropyl)amino)-5-fluoronicotinamide]	< 10	< 65
Cc1ncc(Nc2nc(N[C@H](CC3CC3)[C@H](C)N)c(F)cc2C(N)=O)cc1-n1nccn1 [Example 006-374, 6-(((2R,3S)-3-amino-1-cyclopropylbutan-2-yl)amino)-5-fluoro-2-((6-methyl-5-(2H-1,2,3-triazol-2-yl)pyridin-3-yl)amino)nicotinamide]	10 to 50	130 to 200
COCCn1ncc2cc(Nc3nc(N[C@H](CC(C)C)[C@H](C)N)c(F)cc3C(N)=O)ccc21 [Example 006-385, 6-(((2S,3R)-2-amino-5-methylhexan-3-yl)amino)-5-fluoro-2-((1-(2-methoxyethyl)-1H-indazol-5-yl)amino)nicotinamide]	< 10	65 to 130
Cc1ncc(Nc2nc(N[C@H](CC(C)C)[C@H](C)N)c(F)cc2C(N)=O)cc1-n1nccn1 [Example 006-386, 6-(((2S,3R)-2-amino-5-methylhexan-3-yl)amino)-5-fluoro-2-((6-methyl-5-(2H-1,2,3-triazol-2-yl)pyridin-3-yl)amino)nicotinamide]	< 10	< 65
CCCC[C@@H](Nc1nc(Nc2ccc3c(cnn3C)c2)c(C(N)=O)cc1F)[C@H](C)N [Example 006-387, 6-(((2S,3R)-2-aminoheptane-3-yl)amino)-5-fluoro-2-((1-methyl-1H-indazol-5-yl)amino)nicotinamide]	< 10	65 to 130
CCCC[C@@H](Nc1nc(Nc2ccc3c(cnn3CC)c2)c(C(N)=O)cc1F)[C@H](C)N [Example 006-388, 6-(((2S,3R)-2-aminoheptane-3-yl)amino)-2-((1-ethyl-1H-indazol-5-yl)amino)-5-fluoronicotinamide]	< 10	65 to 130
CCCC[C@@H](Nc1nc(Nc2ccc3c(cnn3CCOC)c2)c(C(N)=O)cc1F)[C@H](C)N [Example 006-389, 6-(((2S,3R)-2-aminoheptane-3-yl)amino)-5-fluoro-2-((1-(2-methoxyethyl)-1H-indazol-5-yl)amino)nicotinamide]	< 10	65 to 130
CCCC[C@@H](Nc1nc(Nc2cnc(C)c(-n3nccn3)c2)c(C(N)=O)cc1F)[C@H](C)N [Example 006-390, 6-(((2S,3R)-2-aminoheptan-3-yl)amino)-5-fluoro-2-((6-methyl-5-(2H-1,2,3-triazol-2-yl)pyridin-3-yl)amino)nicotinamide]	< 10	65 to 130
C[C@H](N)[C@@H](CC1CC1)Nc1nc(Nc2cncc(-n3cccn3)c2)c(C(N)=O)cc1F [Example 006-392, 2-((5-(1H-pyrazol-1-yl)pyridin-3-yl)amino)-6-(((2R,3S)-3-amino-1-cyclopropylbutan-2-yl)amino)-5-fluoronicotinamide]	< 10	65 to 130
COCCOc1cc(Nc2nc(N[C@H](CC3CC3)[C@H](C)N)c(F)cc2C(N)=O)ccn1 [Example 006-394, 6-(((2R,3S)-3-amino-1-cyclopropylbutan-2-yl)amino)-5-fluoro-2-((2-(2-methoxyethoxy)pyridin-4-yl)amino)nicotinamide]	< 10	65 to 130
C=C(C)C[C@@H](Nc1nc(Nc2ccc3ncccc3c2)c(C(N)=O)cc1F)[C@H](C)N [Example 006-396, 6-(((2S,3R)-2-amino-5-methylhex-5-en-3-yl)amino)-5-fluoro-2-(quinolin-6-ylamino)nicotinamide]	< 10	65 to 130
C=C(C)C[C@@H](Nc1nc(Nc2ccc3c(cnn3CC)c2)c(C(N)=O)cc1F)[C@H](C)N [Example 006-397, 6-(((2S,3R)-2-amino-5-methylhex-5-en-3-yl)amino)-2-((1-ethyl-1H-indazol-5-yl)amino)-5-fluoronicotinamide]	< 10	< 65
CCC[C@@H](Nc1nc(Nc2cncc(C3CC3)c2)c(C(N)=O)cc1F)[C@@H](N)CC [Example 006-402, 6-(((3S,4R)-3-aminoheptan-4-yl)amino)-2-((5-cyclopropylpyridin-3-yl)amino)-5-fluoronicotinamide]	< 10	130 to 200
CCC[C@@H](Nc1nc(Nc2cnc(C)c(-n3nccn3)c2)c(C(N)=O)cc1F)[C@@H](N)CC [Example 006-403, 6-(((3S,4R)-3-aminoheptan-4-yl)amino)-5-fluoro-2-((6-methyl-5-(2H-1,2,3-triazol-2-yl)pyridin-3-yl)amino)nicotinamide]	10 to 50	130 to 200
CCCC[C@@H](Nc1nc(Nc2ccnc(OCCOC)c2)c(C(N)=O)cc1F)[C@H](C)N [Example 006-407, 6-(((2S,3R)-2-aminoheptan-3-yl)amino)-5-fluoro-2-((2-(2-methoxyethoxy)pyridin-4-yl)amino)nicotinamide]	< 10	130 to 200
CCCC[C@@H](Nc1nc(Nc2cncc(C3CC3)c2)c(C(N)=O)cc1F)[C@H](C)N [Example 006-408, 6-(((2S,3R)-2-aminoheptan-3-yl)amino)-2-((5-cyclopropylpyridin-3-yl)amino)-5-fluoronicotinamide]	< 10	130 to 200

Other lines, results leading:

IC50 [1] [nM]	IC50 [2] [nM]	Compound
< 10	65 to 130	CC[C@H](N)[C@@H](CC)Nc1nc(Nc2cncc(C3CC3)c2)c(C(N)=O)cc1F [Example 006-378, 6-(((3R,4S)-4-aminohexan-3-yl)amino)-2-((5-cyclopropylpyridin-3-yl)amino)-5-fluoronicotinamide]
< 10	130 to 200	CC[C@H](N)[C@@H](CC)Nc1nc(Nc2cc(OC)nc(OC)c2)c(C(N)=O)cc1F [Example 006-379, 6-(((3R,4S)-4-aminohexan-3-yl)amino)-2-((2,6-dimethoxypyridin-4-yl)amino)-5-fluoronicotinamide]
10 to 50	65 to 130	CC[C@H](N)[C@@H](CC)Nc1nc(Nc2cnc(C)c(-n3nccn3)c2)c(C(N)=O)cc1F [Example 006-380, 6-(((3R,4S)-4-aminohexan-3-yl)amino)-5-fluoro-2-((6-methyl-5-(2H-1,2,3-triazol-2-yl)pyridin-3-yl)amino)nicotinamide]
10 to 50	65 to 130	CC[C@H](N)[C@@H](CC)Nc1nc(Nc2ccnc(OC)c2)c(C(N)=O)cc1F [Example 006-381, 6-(((3R,4S)-4-aminohexan-3-yl)amino)-5-fluoro-2-((2-methoxypyridin-4-yl)amino)nicotinamide]
< 10	65 to 130	CCC[C@@H](Nc1nc(Nc2ccc3c(cnn3C)c2)c(C(N)=O)cc1F)[C@@H](N)CC [Example 006-398, 6-(((3S,4R)-3-aminoheptan-4-yl)amino)-5-fluoro-2-((1-methyl-1H-indazol-5-yl)amino)nicotinamide]
< 10	< 65	CCC[C@@H](Nc1nc(Nc2ccc3c(cnn3CCOC)c2)c(C(N)=O)cc1F)[C@@H](N)CC [Example 006-400, 6-(((3S,4R)-3-aminoheptan-4-yl)amino)-5-fluoro-2-((1-(2-methoxyethyl)-1H-indazol-5-yl)amino)nicotinamide]
10 to 50	130 to 200	CCC[C@@H](Nc1nc(Nc2ccnc(OCCOC)c2)c(C(N)=O)cc1F)[C@@H](N)CC [Example 006-401, 6-(((3S,4R)-3-aminoheptan-4-yl)amino)-5-fluoro-2-((2-(2-methoxyethoxy)pyridin-4-yl)amino)nicotinamide]
< 10	130 to 200	CCC[C@@H](Nc1nc(Nc2ccnc(OC)c2)c(C(N)=O)cc1F)[C@@H](N)CC [Example 006-404, 6-(((3S,4R)-3-aminoheptan-4-yl)amino)-5-fluoro-2-((2-methoxypyridin-4-yl)amino)nicotinamide]
< 10	130 to 200	CCCC[C@@H](Nc1nc(Nc2cc(OC)nc(OC)c2)c(C(N)=O)cc1F)[C@H](C)N [Example 006-405, 6-(((2S,3R)-2-aminoheptan-3-yl)amino)-2-((2,6-dimethoxypyridin-4-yl)amino)-5-fluoronicotinamide]
< 10	65 to 130	CCCC[C@@H](Nc1nc(Nc2ccnc(OC)c2)c(C(N)=O)cc1F)[C@H](C)N [Example 006-406, 6-(((2S,3R)-2-aminoheptan-3-yl)amino)-5-fluoro-2-((2-methoxypyridin-4-yl)amino)nicotinamide]
< 10	130 to 200	COc1cc(Nc2nc(N[C@H](CC(C)C)[C@H](C)N)c(F)cc2C(N)=O)cc(OC)n1 [Example 006-409, 6-(((2S,3R)-2-amino-5-methylhexan-3-yl)amino)-2-((2,6-dimethoxypyridin-4-yl)amino)-5-fluoronicotinamide]
< 10	65 to 130	COc1cc(Nc2nc(N[C@H](CC(C)C)[C@H](C)N)c(F)cc2C(N)=O)ccn1 [Example 006-410, 6-(((2S,3R)-2-amino-5-methylhexan-3-yl)amino)-5-fluoro-2-((2-methoxypyridin-4-yl)amino)nicotinamide]
